In ChEMBL document CHEMBL1132010, “In vivo anti-HIV activity of (+)-calanolide A in the hollow fiber mouse model” (Bioorg Med Chem Lett, 1999):

Legend:
[1] = Compound dose that was proved to be lethally toxic to mice (q12h); format: ADME; details: mouse, in vivo
[2] = Compound dose that was proved to be lethally toxic to mice (q24h); format: ADME; details: mouse, in vivo
[3] = test system: Mus musculus; test: Compound dose (dosing schedule - q8h) that prevented a decrease in RT activity and p24 antigen production without increase in cell viability in mice.* dose was found to be toxic; format: functional
[4] = test system: Mus musculus; test: Compound dose required to produce significant anti-HIV activity in mice after oral administration, given twice daily (q12h); format: functional
[5] = test system: Mus musculus; test: Compound dose required to produce significant anti-HIV activity in mice after i.p. administration, given twice daily (q12h); format: functional
[6] = test system: Mus musculus; test: Compound dose (dosing schedule - q8h) that produced a decrease in RT activity without protection against decreased cell viability in mice; format: functional

With CCCc1cc(=O)oc2c3c(c4c(c12)OC(C)(C)C=C4)O[C@H](C)[C@@H](C)[C@@H]3O [CALANOLIDE A] the Toxic [1] was 200 mg/kg, the Toxic [2] was 300 mg/kg and the Dose [3] was 150 mg/kg. For the same molecule, the Dose [4] was 150 mg/kg, the Dose [5] was 200 mg/kg and the Dose [6] was 100 mg/kg.
